Source: ChEMBL document CHEMBL3769318, “The Rational Design of Selective Benzoxazepin Inhibitors of the α-Isoform of Phosphoinositide 3-Kinase Culminating in the Identification of (S)-2-((2-(1-Isopropyl-1H-1,2,4-triazol-5-yl)-5,6-dihydrobenzo[f]imidazo[1,2-d][1,4]oxazepin-9-yl)oxy)propanamide (GDC-0326)” (J Med Chem, 2016)

Tests used:
[1] = target: Phosphatidylinositol 4,5-bisphosphate 3-kinase catalytic subunit alpha isoform (Homo sapiens, UniProt P42336); assay: Inhibition of recombinant PI3K alpha (unknown origin) using PIP2 as substrate by fluorescence polarization assay; details: read-out: Ki(app)
[2] = Clearance in Sprague-Dawley rat at 1 mg/kg, iv; assay type: ADME, organism-based; details: in vivo
Hepatocyte [3] = assay: Drug metabolism in human hepatocytes; assay type: ADME, cell-based
Hepatocyte [4] = assay: Drug metabolism in rat hepatocytes; assay type: ADME, cell-based
[5] = Antiproliferative activity against human PC3 cells after 4 days by luminescence plate reader method; assay type: functional, cell-based; details: PC-3, 96 h
[6] = Antiproliferative activity against human MCF7-neo/Her2 cells after 3 days by luminescence plate reader method; assay type: functional, cell-based; details: 72 h

Sequence of Phosphatidylinositol 4,5-bisphosphate 3-kinase catalytic subunit alpha isoform (P42336 whole entry, canonical isoform): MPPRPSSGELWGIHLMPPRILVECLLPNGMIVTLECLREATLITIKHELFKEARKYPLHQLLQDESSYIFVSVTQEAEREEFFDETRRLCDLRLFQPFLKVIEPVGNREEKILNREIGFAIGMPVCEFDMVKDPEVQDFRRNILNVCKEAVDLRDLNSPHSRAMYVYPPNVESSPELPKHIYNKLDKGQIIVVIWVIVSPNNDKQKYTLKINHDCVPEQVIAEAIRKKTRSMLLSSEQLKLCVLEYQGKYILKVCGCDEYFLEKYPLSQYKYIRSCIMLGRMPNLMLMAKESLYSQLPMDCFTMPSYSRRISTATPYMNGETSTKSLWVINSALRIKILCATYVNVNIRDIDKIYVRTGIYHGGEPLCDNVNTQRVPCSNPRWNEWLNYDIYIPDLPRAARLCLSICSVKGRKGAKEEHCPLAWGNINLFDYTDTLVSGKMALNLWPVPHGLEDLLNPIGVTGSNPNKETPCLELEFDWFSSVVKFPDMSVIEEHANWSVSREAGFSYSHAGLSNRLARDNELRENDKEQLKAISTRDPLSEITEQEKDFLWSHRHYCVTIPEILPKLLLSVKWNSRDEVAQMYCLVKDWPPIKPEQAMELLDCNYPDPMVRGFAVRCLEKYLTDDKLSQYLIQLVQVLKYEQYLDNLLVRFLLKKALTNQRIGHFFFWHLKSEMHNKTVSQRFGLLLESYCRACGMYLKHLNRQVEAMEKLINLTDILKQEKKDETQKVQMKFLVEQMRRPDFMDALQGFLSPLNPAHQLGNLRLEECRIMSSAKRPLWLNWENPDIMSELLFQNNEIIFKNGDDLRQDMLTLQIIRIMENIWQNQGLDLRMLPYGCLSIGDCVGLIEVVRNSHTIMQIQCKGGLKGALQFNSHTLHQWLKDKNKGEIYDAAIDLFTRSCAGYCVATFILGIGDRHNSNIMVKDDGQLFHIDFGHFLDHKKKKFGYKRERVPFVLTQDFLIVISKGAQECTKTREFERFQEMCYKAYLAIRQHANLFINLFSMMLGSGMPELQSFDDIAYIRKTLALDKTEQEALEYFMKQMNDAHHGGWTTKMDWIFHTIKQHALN

Structure (SMILES)	Ki [1] [nM]	clearance [2] [mL/min/kg]	Drug metabolism (Hepatocyte [3])	Drug metabolism (Hepatocyte [4])	EC50 [5] [nM]	EC50 [6] [nM]
CNC(=O)[C@@H]1CCCN1c1cc2c(cn1)-c1nc(-c3ncnn3C(C)C)cn1CCO2	30					
CC(C)n1ncnc1-c1cn2c(n1)-c1cnc(N3CCC[C@H]3C(N)=O)cc1OCC2	0.1	83	metabolite_notdetected	metabolite_notdetected		
CC(C)n1ncnc1-c1cn2c(n1)-c1ccc(N3CCCC[C@H]3C(N)=O)cc1OCC2	0.3				870	30
CC[C@H](Oc1ccc2c(c1)OCCn1cc(-c3ncnn3C(C)C)nc1-2)C(N)=O	0.5				2900	200
COC(=O)Nc1ccc2c(c1)OCCc1cc(-c3nncn3-c3ccccc3Cl)sc1-2	1					
